Data published in ChEMBL document CHEMBL2094260, “Malaria Box Tuberculosis Screening Data”.

tested on: Mycobacterium tuberculosis; assay: MMV: Screen against Mtb, single point, non replicating, at 25uM; format: functional

Structure (SMILES)	inhibition at 25 µM [%]
COc1ccc(CCn2c(=N)c(C(=O)NCc3cccnc3)cc3c(=O)n4cccc(C)c4nc32)cc1	8.77
Cc1sc2ncnc(Sc3nc4ccccc4[nH]3)c2c1C	22.5
Cc1sc(NC(=O)c2ccccc2)c(C(c2cccs2)N2CCN(c3ccccc3)CC2)c1C (stereo not drawn)	13
COc1cc(CNCCc2ccc(Cl)cc2)cc(OC)c1O	35.9
CCOC(=O)c1cnc2ccc(OC)cc2c1NCc1ccccc1	23
Cc1ccc(-c2nc3ccccc3o2)cc1NCc1cc(Cc2ccccc2)ccc1O	10.4
Cc1ccc(-c2cc3c(nn2)-c2ccccc2C3=O)cc1	17.3
OC1=C2C(=Nc3ccccc3SC2c2ccccc2)c2ccccc21 (stereo not drawn)	14.1
c1ccc(/C2=N/c3ccccc3/N=C(/c3ccccc3)c3ccccc32)cc1	23.5
CC(=O)c1sc(NC(=O)Nc2ccc(C)cc2C)nc1C	6.64
CC(C)(C)C(=O)Nc1ccc(C(=O)Nc2cccc(-c3nc4ccccc4[nH]3)c2)cc1	8.19
COc1ccc(C2=C(c3ccc(OC)cc3)C3(c4ccccc4)C(=O)C2(c2ccccc2)C2C(=O)N(c4ccc(C)cc4)C(=O)C23)cc1 (stereo not drawn)	11
COC(=O)c1ccc(Cl)c2c1C1C=CCC1C(c1cccc3ccccc13)N2 (stereo not drawn)	-4.9
CC(C)=CCN1CCC(C(=O)Nc2ccc(-c3nc4ccccc4[nH]3)cc2)CC1	17.3
CCCCCC(=O)N1c2ccccc2N=C2CC(c3ccc(OC)c(OC)c3)CC(O)=C2C1c1ccc(C(F)(F)F)cc1 (stereo not drawn)	16
CCCCN(CCCC)S(=O)(=O)c1ccc(NC(=O)c2ccco2)cc1	6.97
O=C1c2ccccc2C2=Nc3ccccc3SC(c3cccc(F)c3)C12 (stereo not drawn)	-5.43
CCCCCCc1cc2cc(-c3nc4ccccc4[nH]3)c(=Nc3ccccc3C)oc2cc1O	28.5
c1ccc2c(NCCc3c[nH]c4ccccc34)c3ccccc3nc2c1	17.8
Oc1c(CN2CCN(c3ccccc3F)CC2)cc(Br)c2cccnc12	30.2

Structure (SMILES)	inhibition at 25 µM [%]
O=C(NC(c1ccccc1)c1ccc2cccnc2c1O)c1ccccc1 (stereo not drawn)	17.1
Oc1ccccc1CN1CCC2(CCCN(Cc3ccccc3F)C2)C1 (stereo not drawn)	9.59
Cc1cccc(N2C(=O)C3C(C2=O)C2(c4ccccc4)C(=O)C3(c3ccccc3)C(c3ccc4c(c3)OCO4)=C2c2ccc3c(c2)OCO3)c1 (stereo not drawn)	16.4
COc1nc(Nc2ccc(C(C)C)cc2)nc(OC)n1	8.02
CCCN(CCC)CCCNC(=O)c1cc2c(-c3ccc(OC)c(OC)c3)nn(C)c2s1	-0.011
c1ccc2cc3c(Nc4ccc(N5CCOCC5)cc4)ccnc3cc2c1	0.164
Cc1cc(C)c2c(c1)OCN(Cc1ccccc1Cl)C2	12
Cc1cc(Nc2ccc(Cl)cc2)n2nc(C(F)(F)F)nc2n1	10.3
COc1ccc(-c2cc3c(nn2)-c2ccccc2C3=O)cc1	26.7
FC(F)(F)c1ccc(Nc2nnnc3ccccc23)cc1	31.2
CN(C)c1ccc(-c2nc3cc(N)ccc3[nH]2)cc1	16.4
Cc1ccc(C)c(-c2csc(Nc3ccc(C)c(C)c3)n2)c1	9.48
CCC(C)NCC(O)(c1ccc(Cl)cc1)c1ccc(Cl)cc1 (stereo not drawn)	10.6
O=C(Nc1ccc(-c2nc3cc(NC(=O)c4ccc(Cl)cc4)ccc3[nH]2)cc1)c1ccc(Cl)cc1	17.6
COc1ccc2nc(C)cc(Nc3cccc(O)c3)c2c1	8.19
CC(C)(C)c1ccc(C(=O)Nc2nc3ccccc3s2)cc1	-0.011
Cc1cc(=O)oc2c1ccc1oc(C(=O)c3ccccc3)c(C)c12	21.4
O=C(Nc1ccccc1O)c1ccc(-c2ccc(Cl)cc2Cl)o1	27.6
COc1cccc(NC(=O)Cn2c(C)c(C#N)c3ccccc32)c1	8.89

tested on: Mycobacterium tuberculosis; assay: MMV: Screen against Mtb, single point, replicating, at 25uM; format: functional

Structure (SMILES)	inhibition at 25 µM [%]
COc1ccc(CCn2c(=N)c(C(=O)NCc3cccnc3)cc3c(=O)n4cccc(C)c4nc32)cc1	4.47
Cc1sc2ncnc(Sc3nc4ccccc4[nH]3)c2c1C	14.9
Cc1sc(NC(=O)c2ccccc2)c(C(c2cccs2)N2CCN(c3ccccc3)CC2)c1C (stereo not drawn)	7.6
COc1cc(CNCCc2ccc(Cl)cc2)cc(OC)c1O	0.392
CCOC(=O)c1cnc2ccc(OC)cc2c1NCc1ccccc1	40.2
Cc1ccc(-c2nc3ccccc3o2)cc1NCc1cc(Cc2ccccc2)ccc1O	1.18
Cc1ccc(-c2cc3c(nn2)-c2ccccc2C3=O)cc1	41.8
OC1=C2C(=Nc3ccccc3SC2c2ccccc2)c2ccccc21 (stereo not drawn)	8.39
c1ccc(/C2=N/c3ccccc3/N=C(/c3ccccc3)c3ccccc32)cc1	22.3
CC(=O)c1sc(NC(=O)Nc2ccc(C)cc2C)nc1C	10.3
CC(C)(C)C(=O)Nc1ccc(C(=O)Nc2cccc(-c3nc4ccccc4[nH]3)c2)cc1	10.8
COc1ccc(C2=C(c3ccc(OC)cc3)C3(c4ccccc4)C(=O)C2(c2ccccc2)C2C(=O)N(c4ccc(C)cc4)C(=O)C23)cc1 (stereo not drawn)	10.1
COC(=O)c1ccc(Cl)c2c1C1C=CCC1C(c1cccc3ccccc13)N2 (stereo not drawn)	12.1
CC(C)=CCN1CCC(C(=O)Nc2ccc(-c3nc4ccccc4[nH]3)cc2)CC1	12.5
CCCCCC(=O)N1c2ccccc2N=C2CC(c3ccc(OC)c(OC)c3)CC(O)=C2C1c1ccc(C(F)(F)F)cc1 (stereo not drawn)	12.5
CCCCN(CCCC)S(=O)(=O)c1ccc(NC(=O)c2ccco2)cc1	8.56
O=C1c2ccccc2C2=Nc3ccccc3SC(c3cccc(F)c3)C12 (stereo not drawn)	7.45
CCCCCCc1cc2cc(-c3nc4ccccc4[nH]3)c(=Nc3ccccc3C)oc2cc1O	4.31
c1ccc2c(NCCc3c[nH]c4ccccc34)c3ccccc3nc2c1	47.1
Oc1c(CN2CCN(c3ccccc3F)CC2)cc(Br)c2cccnc12	21.8

Structure (SMILES)	inhibition at 25 µM [%]
O=C(NC(c1ccccc1)c1ccc2cccnc2c1O)c1ccccc1 (stereo not drawn)	7.65
Oc1ccccc1CN1CCC2(CCCN(Cc3ccccc3F)C2)C1 (stereo not drawn)	50.6
Cc1cccc(N2C(=O)C3C(C2=O)C2(c4ccccc4)C(=O)C3(c3ccccc3)C(c3ccc4c(c3)OCO4)=C2c2ccc3c(c2)OCO3)c1 (stereo not drawn)	23.1
COc1nc(Nc2ccc(C(C)C)cc2)nc(OC)n1	14
CCCN(CCC)CCCNC(=O)c1cc2c(-c3ccc(OC)c(OC)c3)nn(C)c2s1	5.83
c1ccc2cc3c(Nc4ccc(N5CCOCC5)cc4)ccnc3cc2c1	19.5
Cc1cc(C)c2c(c1)OCN(Cc1ccccc1Cl)C2	9.78
Cc1cc(Nc2ccc(Cl)cc2)n2nc(C(F)(F)F)nc2n1	9.63
COc1ccc(-c2cc3c(nn2)-c2ccccc2C3=O)cc1	39
FC(F)(F)c1ccc(Nc2nnnc3ccccc23)cc1	44.2
CN(C)c1ccc(-c2nc3cc(N)ccc3[nH]2)cc1	-1
Cc1ccc(C)c(-c2csc(Nc3ccc(C)c(C)c3)n2)c1	12.5
CCC(C)NCC(O)(c1ccc(Cl)cc1)c1ccc(Cl)cc1 (stereo not drawn)	17.4
O=C(Nc1ccc(-c2nc3cc(NC(=O)c4ccc(Cl)cc4)ccc3[nH]2)cc1)c1ccc(Cl)cc1	11.7
COc1ccc2nc(C)cc(Nc3cccc(O)c3)c2c1	7.96
CC(C)(C)c1ccc(C(=O)Nc2nc3ccccc3s2)cc1	54
Cc1cc(=O)oc2c1ccc1oc(C(=O)c3ccccc3)c(C)c12	13.4
O=C(Nc1ccccc1O)c1ccc(-c2ccc(Cl)cc2Cl)o1	13.7
COc1cccc(NC(=O)Cn2c(C)c(C#N)c3ccccc32)c1	7.96
